For this assay, the system named is tumor microvasculature (CD31) of MMTV-CreBRCA1^f/fp53+/− tumors. The assay is described as follows: Tumor vascularization: gross pathology, anti-CD31 stain, Chalkley count. The assay is classed as in vivo, mouse. As for the experimental part:
All animal experiments were conducted in accordance with IACUC-approved protocols at Beth Israel Deaconess Medical Center, Boston, and at the University of Vall d'Hebron, Barcelona, Spain. Female […] were obtained by breeding BRCA1 conditional knockout mice from the NIH repository (01XC8, strain C57BL/6) (Xu et al. Nat. Genet., 22: 37-43, 1999); with MMTV-Cre (Jackson Laboratory B6129-TgN(MMTV-Cre)4Mam) (Wagner et al. Nucleic Acids Res., 25: 4323-4330, 1997) and p53 knockout (Taconic Farms, P53N12-M, C57BL/6) (Donehower et al. Nature, 356: 215-221, 1992). […] The floxed or wild type status of Brca1, the presence of the MMTV-Cre transgene and the p53 heterozygosity were determined by PCR. Mice were examined for the occurrence of tumors twice weekly. When tumormetrics were performed, the length and width of the tumor was determined using calipers, and the tumor volume was determined (width^2×length/2). Tumor volume was used as a measure of growth and was recorded as ratio to tumor volume at diagnosis. […] Proc. Natl. Acad. Sci. USA., 105: 17079-17084, 2008) and dosed at 50 mg/kg/day. For patient-derived tumor grafts consent for tumor use was obtained from patients under a protocol approved by the Vall d'Hebron Hospital Clinical Investigation Ethical Committee. Tumors were subcutaneously implanted in 6-week-old female HsdCpb:NMRI-Foxn1nu mice (Harlan Laboratories, Italy) Animals were supplemented with 1 μM estradiol (Sigma) in the drinking water. After tumor graft growth, tumor tissue was re-implanted into recipient mice, which were randomized upon implant growth. For immunohistochemistry we used anti-cleaved caspase 3 (CC3) (9661S, Cell Signalling, Rabbit polyclonal Asp175), anti-Ki67 (9106-S; Thermo Scientific, Rabbit monoclonal SP6). All other antibodies used are described in the immunoblotting section below. All immunohistochemistries were done as described previously (Burga et al. Breast Cancer Res., 13:[…], 2011) including antigen retrieval with a citrate-buffer. […]

As for `Nc1cc(C(F)(F)F)c(-c2cc(N3CCOCC3)nc(N3CCOCC3)n2)cn1` [Compound A, 5-(2,6-dimorpholinopyrimidin-4-yl)-4-(trifluoromethyl)pyridin-2-amine], the “gross pathology of tumors” value (50 mg/kg/day via gavage, 2 and 6 weeks) was “central pallor and, eventually, central necrosis”. The “Chalkley count of CD31-positive microvessels: size and number of blood vessels” value (before versus after treatment) was “starkly reduced”. For the same molecule, the “tumor microvasculature, anti-CD31 stain” value (center of tumor treated for 6 weeks) is “diminished”.

(Values after patent publication US20140235630A1, “COMPOSITIONS AND METHODS FOR THE TREATMENT OF PROLIFERATIVE DISEASES” (Beth Israel Deaconess Medical Center, Inc., priority 2011, published 2014).)
